From US20240208992A1, “MACROCYCLES AS CFTR MODULATORS” (Idorsia Pharmaceuticals Ltd, priority 2021, published 2024)

Biological target: human F508del-CFTR (Homo sapiens, UniProt P13569, DEL508-508)
Experiment: F508del-CFTR cell surface expression (corrector activity), DiscoveRx ß-galactosidase complementation chemiluminescence assay in recombinant U2OS cell line;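 further: U2OS cells co-expressing ProLink-tagged F508del-CFTR and a membrane-anchored enzyme acceptor, where more surface CFTR restores β-galactosidase activity measured by chemiluminescence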
Conditions: U2OS cells, 16h compound incubation; for EC50: EC50, F508del-CFTR cell surface expression, geomean of several measurements; for Emax: U2OS, in relation to the Emax of the corrector lumacaftor (=100%), arithmetic mean

Sequence of human F508del-CFTR (P13569 with tags, fused parts or gaps DEL508-508): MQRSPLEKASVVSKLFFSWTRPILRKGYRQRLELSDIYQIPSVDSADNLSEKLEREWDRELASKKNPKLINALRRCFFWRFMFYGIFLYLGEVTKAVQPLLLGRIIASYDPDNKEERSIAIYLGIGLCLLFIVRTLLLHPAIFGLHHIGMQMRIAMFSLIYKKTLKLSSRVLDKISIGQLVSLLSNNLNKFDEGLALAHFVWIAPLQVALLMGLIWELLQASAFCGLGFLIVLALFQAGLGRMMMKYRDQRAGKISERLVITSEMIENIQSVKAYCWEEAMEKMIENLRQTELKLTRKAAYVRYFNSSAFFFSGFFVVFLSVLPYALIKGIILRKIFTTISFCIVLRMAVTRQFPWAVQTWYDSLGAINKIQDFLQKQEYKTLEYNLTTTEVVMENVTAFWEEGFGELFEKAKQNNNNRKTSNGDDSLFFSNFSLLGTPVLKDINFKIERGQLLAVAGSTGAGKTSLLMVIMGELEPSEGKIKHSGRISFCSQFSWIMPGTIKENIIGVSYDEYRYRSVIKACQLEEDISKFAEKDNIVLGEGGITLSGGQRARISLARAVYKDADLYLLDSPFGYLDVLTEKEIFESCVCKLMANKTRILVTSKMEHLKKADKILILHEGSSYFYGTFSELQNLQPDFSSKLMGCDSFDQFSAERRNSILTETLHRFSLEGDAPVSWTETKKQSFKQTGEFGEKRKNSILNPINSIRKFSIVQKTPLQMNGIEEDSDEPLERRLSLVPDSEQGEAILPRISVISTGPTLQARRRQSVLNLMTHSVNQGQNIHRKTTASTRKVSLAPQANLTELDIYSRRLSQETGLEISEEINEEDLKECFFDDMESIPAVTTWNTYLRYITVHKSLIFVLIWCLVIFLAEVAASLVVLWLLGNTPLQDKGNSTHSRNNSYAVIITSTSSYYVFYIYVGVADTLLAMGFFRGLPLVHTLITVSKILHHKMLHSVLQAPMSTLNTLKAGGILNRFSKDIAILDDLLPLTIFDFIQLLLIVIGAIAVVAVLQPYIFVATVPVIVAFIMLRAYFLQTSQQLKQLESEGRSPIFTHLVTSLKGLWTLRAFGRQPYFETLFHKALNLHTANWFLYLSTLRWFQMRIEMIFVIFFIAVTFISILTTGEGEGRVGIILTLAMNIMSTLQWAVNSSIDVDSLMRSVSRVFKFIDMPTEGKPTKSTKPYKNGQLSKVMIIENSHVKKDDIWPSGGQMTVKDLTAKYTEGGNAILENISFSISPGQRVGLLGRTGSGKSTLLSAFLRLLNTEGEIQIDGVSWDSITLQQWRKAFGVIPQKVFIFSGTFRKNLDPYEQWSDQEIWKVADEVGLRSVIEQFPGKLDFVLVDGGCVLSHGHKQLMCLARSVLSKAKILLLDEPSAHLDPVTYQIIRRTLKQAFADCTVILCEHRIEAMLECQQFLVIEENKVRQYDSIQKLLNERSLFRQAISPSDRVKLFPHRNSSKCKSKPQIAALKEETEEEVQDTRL

| Compound | EC50 | Emax |
| --- | --- | --- |
| COc1nccc2c1C(=O)N[C@H](C(=O)NCCc1noc(C3CC3)n1)CC(=O)N(C)[C@@H](CC(C)C)C(=O)N(C)[C@H](CCc1nc(C3CC3)no1)C(=O)N[C@H](Cc1ccccc1)CO2 [Example 864, (3R,6R,9S,13S)-3-benzyl-N-(2-(5-cyclopropyl-1,2,4-oxadiazol-3-yl)ethyl)-6-(2-(3-cyclopropyl-1,2,4-oxadiazol-5-yl)ethyl)-9-isobutyl-16-methoxy-7,10-dimethyl-5,8,11,15-tetraoxo-2,3,4,5,6,7,8,9,10,11,12,13,14,15-tetradecahydropyrido[3,4-p][1]oxa[4,7,10,14]tetraazacycloheptadecine-13-carboxamide] | 617 nM | 385% |
| COc1cccc(CCNC(=O)[C@@H]2CC(=O)N(C)[C@@H](CC(C)C)C(=O)N(C)[C@H](C(C)(C)C)C(=O)N[C@H](Cc3ccccc3)COc3cc(C)nc(OC)c3C(=O)N2)c1 [Example 865, (3R,6R,9S,13S)-3-benzyl-6-(tert-butyl)-9-isobutyl-16-methoxy-N-(3-methoxyphenethyl)-7,10,18-trimethyl-5,8,11,15-tetraoxo-2,3,4,5,6,7,8,9,10,11,12,13,14,15-tetradecahydropyrido[3,4-p][1]oxa[4,7,10,14]tetraazacycloheptadecine-13-carboxamide] | 103 nM | 356% |
| COc1nc(C)cc2c1C(=O)N[C@H](C(=O)NCCc1cc(C)no1)CC(=O)N(C)[C@@H](CC(C)C)C(=O)N(C)[C@H](C(C)(C)C)C(=O)N[C@H](Cc1ccccc1)CO2 [Example 866, (3R,6R,9S,13S)-3-benzyl-6-(tert-butyl)-9-isobutyl-16-methoxy-7,10,18-trimethyl-N-(2-(3-methylisoxazol-5-yl)ethyl)-5,8,11,15-tetraoxo-2,3,4,5,6,7,8,9,10,11,12,13,14,15-tetradecahydropyrido[3,4-p][1]oxa[4,7,10,14]tetraazacycloheptadecine-13-carboxamide] | 337 nM | 324% |
| COCCc1ccc(-c2noc(C[C@@H]3C(=O)N[C@H](Cc4ccccc4)COc4ccnc(OC)c4C(=O)N[C@H](C(=O)NCCc4noc(C5CC5)n4)CC(=O)N(C)[C@@H](CC(C)C)C(=O)N3C)n2)cc1 [Example 867, (3R,6R,9S,13S)-3-benzyl-N-(2-(5-cyclopropyl-1,2,4-oxadiazol-3-yl)ethyl)-9-isobutyl-16-methoxy-6-((3-(4-(2-methoxyethyl)phenyl)-1,2,4-oxadiazol-5-yl)methyl)-7,10-dimethyl-5,8,11,15-tetraoxo-2,3,4,5,6,7,8,9,10,11,12,13,14,15-tetradecahydropyrido[3,4-p][1]oxa[4,7,10,14]tetraazacycloheptadecine-13-carboxamide] | 31 nM | 413% |
| COCCc1ccc(-c2noc(C[C@@H]3C(=O)N[C@H](Cc4ccccc4)COc4ccnc(OC)c4C(=O)N[C@H](C(=O)NCCc4cc(OC)no4)CC(=O)N(C)[C@@H](CC(C)C)C(=O)N3C)n2)cc1 [Example 868, (3R,6R,9S,13S)-3-benzyl-9-isobutyl-16-methoxy-6-((3-(4-(2-methoxyethyl)phenyl)-1,2,4-oxadiazol-5-yl)methyl)-N-(2-(3-methoxyisoxazol-5-yl)ethyl)-7,10-dimethyl-5,8,11,15-tetraoxo-2,3,4,5,6,7,8,9,10,11,12,13,14,15-tetradecahydropyrido[3,4-p][1]oxa[4,7,10,14]tetraazacycloheptadecine-13-carboxamide] | 18 nM | 397% |
| COc1cc2c(c(OC)n1)C(=O)N[C@H](C(=O)NCCc1cc(C)no1)CC(=O)N(C)[C@@H](CC(C)C)C(=O)N1CCCC[C@@H]1C(=O)N[C@H](Cc1ccccc1)CO2 [Example 869, (7S,11S,17aR,20R)-20-benzyl-11-isobutyl-2,4-dimethoxy-10-methyl-N-(2-(3-methylisoxazol-5-yl)ethyl)-5,9,12,18-tetraoxo-5,6,7,8,9,10,11,12,15,16,17,17a,18,19,20,21-hexadecahydro-14H-dipyrido[2,1-f:3′,4′-p][1]oxa[4,7,10,14]tetraazacycloheptadecine-7-carboxamide] | 358 nM | 305% |
| COc1cc2c(c(OC)n1)C(=O)N[C@H](C(=O)NCCc1cc(C3CC3)no1)CC(=O)N(C)[C@@H](CC(C)C)C(=O)N1CCCC[C@@H]1C(=O)N[C@H](Cc1ccccc1)CO2 [Example 870, (7S,11S,17aR,20R)-20-benzyl-N-(2-(3-cyclopropylisoxazol-5-yl)ethyl)-11-isobutyl-2,4-dimethoxy-10-methyl-5,9,12,18-tetraoxo-5,6,7,8,9,10,11,12,15,16,17,17a,18,19,20,21-hexadecahydro-14H-dipyrido[2,1-f:3′,4′-p][1]oxa[4,7,10,14]tetraazacycloheptadecine-7-carboxamide] | 201 nM | 316% |
| COc1cccc(CCNC(=O)[C@@H]2CC(=O)N(C)[C@@H](CC(C)C)C(=O)N(C)[C@H](CC(C)(C)C)C(=O)N[C@H](Cc3ccccc3)COc3cc(C)nc(OC)c3C(=O)N2)c1 [Example 873, (3R,6R,9S,13S)-3-benzyl-9-isobutyl-16-methoxy-N-(3-methoxyphenethyl)-7,10,18-trimethyl-6-neopentyl-5,8,11,15-tetraoxo-2,3,4,5,6,7,8,9,10,11,12,13,14,15-tetradecahydropyrido[3,4-p][1]oxa[4,7,10,14]tetraazacycloheptadecine-13-carboxamide] | 41 nM | 336% |
| COc1cccc(CCNC(=O)[C@@H]2CC(=O)N(C)[C@@H](CC(C)C)C(=O)N(C)[C@H](CCc3ccccc3)C(=O)N[C@H](Cc3ccccc3)COc3cc(C)nc(OC)c3C(=O)N2)c1 [Example 875, (3R,6R,9S,13S)-3-benzyl-9-isobutyl-16-methoxy-N-(3-methoxyphenethyl)-7,10,18-trimethyl-5,8,11,15-tetraoxo-6-phenethyl-2,3,4,5,6,7,8,9,10,11,12,13,14,15-tetradecahydropyrido[3,4-p][1]oxa[4,7,10,14]tetraazacycloheptadecine-13-carboxamide] | 21 nM | 333% |

The next lines start with the values.

| EC50 | Emax | Compound |
| --- | --- | --- |
| 32 nM | 378% | COCCc1ccc(-c2noc(C[C@@H]3C(=O)N[C@H](Cc4ccccc4)COc4ccnc(OC)c4C(=O)N[C@H](C(=O)NCCn4ncc(C5CC5)n4)CC(=O)N(C)[C@@H](CC(C)C)C(=O)N3C)n2)cc1 [Example 871, (3R,6R,9S,13S)-3-benzyl-N-(2-(4-cyclopropyl-2H-1,2,3-triazol-2-yl)ethyl)-9-isobutyl-16-methoxy-6-((3-(4-(2-methoxyethyl)phenyl)-1,2,4-oxadiazol-5-yl)methyl)-7,10-dimethyl-5,8,11,15-tetraoxo-2,3,4,5,6,7,8,9,10,11,12,13,14,15-tetradecahydropyrido[3,4-p][1]oxa[4,7,10,14]tetraazacycloheptadecine-13-carboxamide] |
| 535 nM | 318% | COc1noc(CCNC(=O)[C@@H]2CC(=O)N(C)[C@@H](CC(C)C)C(=O)N(C)C3(CC3)C(=O)N[C@H](Cc3ccccc3)COc3cnc4ccccc4c3C(=O)N2)n1 [Example 872, (3′S,7′S,13′R)-13′-benzyl-7′-isobutyl-N-(2-(3-methoxy-1,2,4-oxadiazol-5-yl)ethyl)-6′,9′-dimethyl-1′,5′,8′,11′-tetraoxo-2′,3′,4′,5′,6′,7′,8′,9′,11′,12′,13′,14′-dodecahydro-1′H-spiro[cyclopropane-1,10′-[1]oxa[4,7,10,14]tetraazacycloheptadecino[17,16-c]quinoline]-3′-carboxamide] |
| 66 nM | 332% | COc1nc(C)cc2c1C(=O)N[C@H](C(=O)NCCc1cc(C)no1)CC(=O)N(C)[C@@H](CC(C)C)C(=O)N(C)[C@H](CCc1ccccc1)C(=O)N[C@H](Cc1ccccc1)CO2 [Example 874, (3R,6R,9S,13S)-3-benzyl-9-isobutyl-16-methoxy-7,10,18-trimethyl-N-(2-(3-methylisoxazol-5-yl)ethyl)-5,8,11,15-tetraoxo-6-phenethyl-2,3,4,5,6,7,8,9,10,11,12,13,14,15-tetradecahydropyrido[3,4-p][1]oxa[4,7,10,14]tetraazacycloheptadecine-13-carboxamide] |
| 113 nM | 317% | COc1nc(C)cc2c1C(=O)N[C@H](C(=O)NCCc1cc(C)no1)CC(=O)N(C)[C@@H](CC(C)C)C(=O)N(C)[C@H](CC(C)(C)C)C(=O)N[C@H](Cc1ccccc1)CO2 [Example 876, (3R,6R,9S,13S)-3-benzyl-9-isobutyl-16-methoxy-7,10,18-trimethyl-N-(2-(3-methylisoxazol-5-yl)ethyl)-6-neopentyl-5,8,11,15-tetraoxo-2,3,4,5,6,7,8,9,10,11,12,13,14,15-tetradecahydropyrido[3,4-p][1]oxa[4,7,10,14]tetraazacycloheptadecine-13-carboxamide] |
| 186 nM | 361% | CCOCC[C@@H]1C(=O)N[C@H](Cc2ccccc2)COc2cc(C)nc(OC)c2C(=O)N[C@H](C(=O)NCCc2cc(OC)no2)CC(=O)N(C)[C@@H](CC(C)C)C(=O)N1C [Example 877, (3R,6R,9S,13S)-3-benzyl-6-(2-ethoxyethyl)-9-isobutyl-16-methoxy-N-(2-(3-methoxyisoxazol-5-yl)ethyl)-7,10,18-trimethyl-5,8,11,15-tetraoxo-2,3,4,5,6,7,8,9,10,11,12,13,14,15-tetradecahydropyrido[3,4-p][1]oxa[4,7,10,14]tetraazacycloheptadecine-13-carboxamide] |
| 27 nM | 336% | COc1cc(CCNC(=O)[C@@H]2CC(=O)N(C)[C@@H](CC(C)C)C(=O)N(C)[C@H](CC(C)(C)C)C(=O)N[C@H](Cc3ccccc3)COc3cc(C)nc(OC)c3C(=O)N2)on1 [Example 878, (3R,6R,9S,13S)-3-benzyl-9-isobutyl-16-methoxy-N-(2-(3-methoxyisoxazol-5-yl)ethyl)-7,10,18-trimethyl-6-neopentyl-5,8,11,15-tetraoxo-2,3,4,5,6,7,8,9,10,11,12,13,14,15-tetradecahydropyrido[3,4-p][1]oxa[4,7,10,14]tetraazacycloheptadecine-13-carboxamide] |
